The record followed here is US7973219B2, “Method for producing transgenic plants resistant to weed control compounds which disrupt the porphyrin pathways of plants” (Sumitomo Chemical Company, Limited, priority 1998, dated 2011).

Assay [1] concerns tobacco introduced with the gene encoding the variant barley ferrochelatase. The assay is described as follows: Leaf piece chlorophyll test, tobacco with gene encoding variant barley ferrochelatase. The assay is classed as in vivo. To be noted: Table 12; for Resistant level to test compound: same manner as Example 6 (0.3 ppm), treated vs untreated leaf pieces; for Total chlorophyll content treated-leaf: same manner as Example 6 (0.3 ppm, 7 days in light). An excerpt:
(§1) The tobacco leaves into which bchH gene was introduced and control recombinant tobacco leaves obtained in Example 5 were collected and each leaf was divided into the right and left equivalent pieces along the main vein, respectively. To one piece was applied an aqueous solution containing 0.3 ppm PPO inhibitory-type herbicidal compound of Structure 8, while, to the other piece was not applied the compound. These leaf pieces were placed on MS medium containing 0.8% agar and allowed to stand at room temperature for 7 days in light place. Then, each leaf piece was ground with pestle and mortar in 5 ml of 80% aqueous acetone solution to extract chlorophyll. The extract liquid was diluted with 80% aqueous acetone solution and the absorbance was measured at 750 nm, 663 nm and 645 nm to calculate total chlorophyll content according to the method described by Macknney G., J. Biol. Chem. (1941) 140, p 315. The results obtained from 4 clones of tobacco into which bchH gene was introduced (BCH1 to 4) and control recombinant tobacco is shown in Table 4. In the table, the resistant level to the herbicidal compound was represented by percentages of the total chlorophyll content of leaf pieces treated with herbicidal compound to that of untreated leaf pieces.
Leaf pieces of tobacco cultured sterilely were infected with said Agrobacterium strain and, according to the same manner as in Example 5, tobacco into which the gene encoding the variant barley ferrochelatase was introduced was obtained.
The level of resistance to the PPO inhibitory-type herbicidal compound represented by Structure 8 was confirmed quantitatively by testing tobacco into which the gene encoding the variant barley ferrochelatase prepared in Example 21 was introduced according to the same manner as in Example 6. The results obtained from 4 clones (HVF 1-4) of tobacco introduced with the gene encoding the variant barley ferrochelatase and control recombinant tobacco are shown in table 12. In the table, the resistant levels to the herbicidal compound are represented by percentages of the total chlorophyll content of leaf pieces treated with herbicidal compound to that of untreated leaf pieces.

For assay [2], the system named is tobacco into which bchH gene was introduced. Nature of the assay: Leaf piece chlorophyll test, tobacco into which bchH gene was introduced. Type of assay: in vivo. Conditions: 0.3 ppm, Table 4; for activity at 0.3 ppm: Nicotiana tabacum, 168 h, 7 days in light, treated vs untreated leaf pieces, read-out: Resistant level to test compound; for Total chlorophyll content treated-leaf: leaf pieces 7 days in light place. As for the experimental part:
Then, according to the method described in Manual for Gene Manipulation of Plant (by Hirofumi UCHIMIYA, Kodan-sha Scientific, 1992), the gene was introduced into tobacco. Agrobacterium strain bearing plasmid pBIBCH was cultured at 28° C. overnight in LB medium and then leaf pieces of tobacco cultured sterilely were dipped in the liquid culture medium. The leaf pieces were cultured at room temperature for 2 days in Murashige-Skoog medium (MS-medium, described in Murasige T. and Skoog F., Physiol. Plant. (1962) 15, p 473) containing 0.8% agar, 0.1 mg/liter naphthalene acetic acid and 1.0 mg/liter benzyl aminopurine. Then, the leaf pieces were washed with sterilized water and cultured for 7 days on MS medium containing 0.8% agar, 0.1 mg/liter naphthalene acetic acid, 1.0 mg/liter benzyl aminopurine and 500 μg/ml cefotaxime. The leaf pieces were transplanted onto MS medium containing 0.8% agar, 0.1 mg/liter naphthalene acetic acid, 1.0 mg/liter benzyl aminopurine, 500 μg/ml cefotaxime and 100 μg/ml kanamycin (hereinafter referred to as selective MS medium) and cultured on the medium continuously for 4months with transplanting the tobacco leaf pieces onto fresh selective MS medium every 1 month. During culture, stem-leaf differentiated shoots were appeared from the tobacco leaf pieces, these shoots were transplanted to MS medium containing 0.8% agar, 300 μg/ml cefotaxime and 50 μg/ml kanamycin to induce roots to obtain regenerated plants. The resultant regenerated plant was transplanted and cultured on MS medium 0.8% agar and 50 μg/ml kanamycin to obtain tobacco plant into which bchH gene was introduced. Similarly, tobacco leaf pieces were infected with Agrobacterium strain bearing pNO to obtain regenerated plant from the tobacco leaf pieces and tobacco plant (hereinafter referred to as control recombinant tobacco).
as §1
The tobacco clone into which bchH gene was introduced and control recombinant tobacco were also treated in the same manner with the solution containing PPO inhibitory-type herbicidal compound represented by the above Structure 3, 7, 10, 11, 13, 17, 23, 24, 25, 27, 28, 30 or 35, and the resistant level to each herbicidal compound was measured. In the table, the resistant levels to the herbicidal compound were represented by percentages of the total chlorophyll content of leaf pieces treated with the herbicidal compound to that of untreated leaf pieces.

The structures appear in SMILES notation. Like-named read-outs stand apart in the source and are kept apart here.

As for `C#CCOc1cc(N2C(=O)C3=C(CCCC3)C2=O)c(F)cc1Cl` [Structure 8], the “Resistant level to test compound” value worked out at 106% in assay [1] (clone HVF-1), 102% in assay [1] (clone HVF-2), 98.1% in assay [1] (clone HVF-3) and 95.9% in assay [1] (clone HVF-4). Further, the “Total chlorophyll content treated-leaf” value in assay [1] (clone HVF-1) is reported as 0.930 mg/g-fresh weight; in assay [1] (clone HVF-2), 1.16 mg/g-fresh weight; in assay [1] (clone HVF-3), 1.04 mg/g-fresh weight; in assay [1] (clone HVF-4) it was 1.42 mg/g-fresh weight; in assay [2] (clone BCH-1) it was 1.70 mg/g-fresh weight; in assay [2] (clone BCH-2), 2.14 mg/g-fresh weight. Besides, the “Total chlorophyll content treated-leaf” value is 1.57 mg/g-fresh weight in assay [2] (clone BCH-3) and 1.06 mg/g-fresh weight in assay [2] (clone BCH-4). The activity at 0.3 ppm in assay [2] (clone BCH-1) came out at 126%; in assay [2] (clone BCH-2) it was 104%; in assay [2] (clone BCH-3) it was 81.3%; in assay [2] (clone BCH-4) it was 70.2%.
